Experimental data: patent publication US20230250066A1, “HERBICIDAL CINNOLINE DERIVATIVES” (SYNGENTA CROP PROTECTION AG, priority 2020, published 2023)

How the values were obtained:
Assay type in all cases: in vivo
[1] = tested on: Amaranthus retoflexus (AMARE); assay: Pre-emergence herbicidal test; conditions: 1000 g/ha, evaluated after 13 days
Setaria faberi (SETFA) [2] = assay: Pre-emergence herbicidal test; conditions: 1000 g/ha, evaluated after 13 days
[3] = tested on: Echinochloa crus-galli (ECHCG); assay: Pre-emergence herbicidal test; conditions: 1000 g/ha, evaluated after 13 days
[4] = tested on: Ipomoea hederacea (IPOHE); assay: Pre-emergence herbicidal test; conditions: 1000 g/ha, evaluated after 13 days
[5] = tested on: Abutilon theophrasti (ABUTH); assay: Pre-emergence herbicidal test; conditions: 1000 g/ha, evaluated after 13 days
Zea mays (ZEAMX) [6] = assay: Pre-emergence herbicidal test; conditions: 1000 g/ha, evaluated after 13 days
[7] = tested on: Abutilon theophrasti (ABUTH); assay: Post-emergence herbicidal test; conditions: 1000 g/ha unless otherwise stated, evaluated after 13 days
Method in brief: (§1)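 Scores on a five-point scale: 5=81-100%, 4=61-80%, 3=41-60%, 2=21-40%, 1=10-20%, 0=0% damage. These are assessed 13 days after spraying at 1000 g/ha unless stated.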

[8] = tested on: Amaranthus retoflexus (AMARE); assay: Post-emergence herbicidal test; conditions: 1000 g/ha unless otherwise stated, evaluated after 13 days
Method in brief: as §1

[9] = tested on: Echinochloa crus-galli (ECHCG); assay: Post-emergence herbicidal test; conditions: 1000 g/ha unless otherwise stated, evaluated after 13 days
Method in brief: as §1

[10] = tested on: Ipomoea hederacea (IPOHE); assay: Post-emergence herbicidal test; conditions: 1000 g/ha unless otherwise stated, evaluated after 13 days
Method in brief: as §1

Setaria faberi (SETFA) [11] = assay: Post-emergence herbicidal test; conditions: 1000 g/ha unless otherwise stated, evaluated after 13 days
Method in brief: as §1

Zea mays (ZEAMX) [12] = assay: Post-emergence herbicidal test; conditions: 1000 g/ha unless otherwise stated, evaluated after 13 days
Method in brief: as §1

Compound	percentage damage caused to the plant, five-point scale, AMARE [1]	percentage damage caused to the plant, five-point scale, SETFA (Setaria faberi (SETFA) [2])	percentage damage caused to the plant, five-point scale, ECHCG [3]	percentage damage caused to the plant, five-point scale, IPOHE [4]	percentage damage caused to the plant, five-point scale, ABUTH [5]	percentage damage caused to the plant, five-point scale, ZEAMX (Zea mays (ZEAMX) [6])	percentage damage caused to the plant, ABUTH (five-point scale) [7]	percentage damage caused to the plant, AMARE (five-point scale) [8]	percentage damage caused to the plant, ECHCG (five-point scale) [9]	percentage damage caused to the plant, IPOHE (five-point scale) [10]	percentage damage caused to the plant, SETFA (five-point scale) (Setaria faberi (SETFA) [11])	percentage damage caused to the plant, ZEAMX (five-point scale) (Zea mays (ZEAMX) [12])
O=C(O)c1nn(-c2ccc(OC(F)(F)F)cc2)c2cccc([S+]([O-])CC(F)(F)F)c2c1=O (stereo not drawn) [Compound P37, 4-oxo-5-(2,2,2-trifluoroethylsulfinyl)-1-[4-(trifluoromethoxy)phenyl]cinnoline-3-carboxylic acid]	0 (0=0%)	0 (0=0%)	0 (0=0%)	0 (0=0%)	1 (1=10-20%)	0 (0=0%)	1 (1=10-20%)	0 (0=0%)	1 (1=10-20%)	1 (1=10-20%)	1 (1=10-20%)	1 (1=10-20%)
CCOC(=O)c1nn(-c2ccc(OC(F)(F)F)cc2)c2cccc([S+]([O-])CC(F)(F)F)c2c1=O (stereo not drawn) [Compound P38, ethyl 4-oxo-5-(2,2,2-trifluoroethylsulfinyl)-1-[4-(trifluoromethoxy)phenyl]cinnoline-3-carboxylate]	0 (0=0%)	0 (0=0%)	0 (0=0%)	0 (0=0%)	0 (0=0%)	0 (0=0%)	1 (1=10-20%)	1 (1=10-20%)	0 (0=0%)	0 (0=0%)	1 (1=10-20%)	1 (1=10-20%)
CCOC(=O)c1nn(-c2ccc(OC(F)(F)F)cc2)c2cccc(SCC(F)(F)F)c2c1=O [Compound P39, ethyl 4-oxo-5-(2,2,2-trifluoroethylsulfanyl)-1-[4-(trifluoromethoxy)phenyl]cinnoline-3-carboxylate]	1 (1=10-20%)	0 (0=0%)	0 (0=0%)	0 (0=0%)	0 (0=0%)	0 (0=0%)	1 (1=10-20%)	0 (0=0%)	0 (0=0%)	1 (1=10-20%)	0 (0=0%)	1 (1=10-20%)
CCOC(=O)c1nn(-c2ccc(OC(F)(F)F)cc2)c2cccc(S(=O)(=O)CC(F)(F)F)c2c1=O [Compound P40, ethyl 4-oxo-5-(2,2,2-trifluoroethylsulfonyl)-1-[4-(trifluoromethoxy)phenyl]cinnoline-3-carboxylate]	0 (0=0%)	1 (1=10-20%)	0 (0=0%)	0 (0=0%)	1 (1=10-20%)	1 (1=10-20%)	1 (1=10-20%)	1 (1=10-20%)	1 (1=10-20%)	0 (0=0%)	1 (1=10-20%)	1 (1=10-20%)
CS(=O)(=O)c1cccc2c1c(=O)c(C(=O)O)nn2-c1ccc(Cl)cc1F [Compound P41, 1-(4-chloro-2-fluoro-phenyl)-5-methylsulfonyl-4-oxo-cinnoline-3-carboxylic acid]	1 (1=10-20%)	4 (4=61-80%)	2 (2=21-40%)	1 (1=10-20%)	1 (1=10-20%)	1 (1=10-20%)	1 (1=10-20%)	1 (1=10-20%)	4 (4=61-80%)	1 (1=10-20%)	4 (4=61-80%)	1 (1=10-20%)
CCOC(=O)c1nn(-c2ccc(Cl)cc2F)c2cccc(S(C)(=O)=O)c2c1=O [Compound P42, ethyl 1-(4-chloro-2-fluoro-phenyl)-5-methylsulfonyl-4-oxo-cinnoline-3-carboxylate]	0 (0=0%)	4 (4=61-80%)	3 (3=41-60%)	1 (1=10-20%)	1 (1=10-20%)	0 (0=0%)	1 (1=10-20%)	1 (1=10-20%)	4 (4=61-80%)	1 (1=10-20%)	4 (4=61-80%)	1 (1=10-20%)
CS(=O)(=O)c1cccc2c1c(=O)c(C(=O)O)nn2-c1ccc(Cl)cc1Cl [Compound P43, 1-(2,4-dichlorophenyl)-5-methylsulfonyl-4-oxo-cinnoline-3-carboxylic acid]	0 (0=0%)	4 (4=61-80%)	2 (2=21-40%)	1 (1=10-20%)	0 (0=0%)	0 (0=0%)	2 (2=21-40%)	1 (1=10-20%)	3 (3=41-60%)	1 (1=10-20%)	4 (4=61-80%)	1 (1=10-20%)
CCOC(=O)c1nn(-c2ccc(Cl)cc2Cl)c2cccc(S(C)(=O)=O)c2c1=O [Compound P44, ethyl 1-(2,4-dichlorophenyl)-5-methylsulfonyl-4-oxo-cinnoline-3-carboxylate]	1 (1=10-20%)	4 (4=61-80%)	2 (2=21-40%)	0 (0=0%)	0 (0=0%)	0 (0=0%)	1 (1=10-20%)	1 (1=10-20%)	4 (4=61-80%)	1 (1=10-20%)	4 (4=61-80%)	1 (1=10-20%)
CCOC(=O)c1nn(-c2ccc(OC(F)(F)F)cc2)c2ccc(CC(C)C)c(S(C)(=O)=O)c2c1=O [Compound P45, ethyl 6-isobutyl-5-methylsulfonyl-4-oxo-1-[4-(trifluoromethoxy)phenyl]cinnoline-3-carboxylate]	0 (0=0%)	0 (0=0%)	0 (0=0%)	0 (0=0%)	0 (0=0%)	0 (0=0%)	0 (0=0%)	0 (0=0%)	1 (1=10-20%)	0 (0=0%)	1 (1=10-20%)	1 (1=10-20%)
